Measured values published in patent US7935819B2, “Cyclic urea derivatives, preparation thereof and pharmaceutical use thereof as kinase inhibitors” (Aventis Pharma S.A., priority 2006, dated 2011).
Where two headings read alike, the source gives them in different places.

Key:
[1] = target: MEF-IGF1R cells (stable clone transfected with hIGF-1R) (Homo sapiens, UniProt P08069); experiment: Proliferation/viability of MEF-IGF1R (Test C), [14C]thymidine incorporation; type: cell-based; conditions: rhIGF1 100 ng/mL, 72 hours, read-out: Test C IC50
Description: C) Measurement of the Proliferation/Viability of MEF-IGF1R
Cell culture: the MEF-IGF1R cells (stable clone of cells transfected with the receptor hIGF-1R) are cultured at 37° C. under 5% CO2 in EMEM medium containing 10% FCS.
Test procedure: the cells are seeded at 5000 cells per well in 96-well Cytostar plates (Amersham) with 0.2 mL of EMEM culture medium at 37° C. for 18 hours. The cells are then washed twice with EMEM medium and left to culture without serum for 24 hours. The compounds are then added at various concentrations in the presence of rhIGF1 (100 ng/mL) and 0.1 μCi of Thymidine [^14C] (specific activity ˜50 mCi/mmol) to give 0.2 mL of volume per well. After incubation for 72 hours in the presence of the compound, at 37° C. under 5% CO2, the incorporation of Thymidine [^14C] is measured by counting the radioactivity on a Microbeta trilux counter (Perkin-Elmer). The IC50 is determined from 10 increasing concentrations of the compound.
(i) The tests are performed in duplicate and the mean of the two tests is calculated.
(ii) The value of the signal of the maximum response is calculated from the positive control: cells stimulated with IGF1 without compound.
(iii) Value of the signal of the minimum response is calculated from the negative control: cells not stimulated with IGF1 without compound.
(iv) By using these values as maximum (100%) and minimum (0%), respectively, the data were normalized so as to give a percentage of the maximum response.
(v) A curve of dose response is plotted and the IC50 (the concentration of which the compound induces a 50% decrease in the signal) of the compound is calculated by non-linear regression analysis.

[2] = target: T1, IGF-1R (human cytoplasmic domain fused with GST) (Homo sapiens, UniProt P08069); experiment: Kinase IGF-1R test (Test A): inhibition of autophosphorylation of the enzyme, HTRF; type: biochemical; conditions: 120 μM ATP
T1 construct: The human cytoplasmic domain of IGF-1R was cloned by fusion with glutathione S-transferase (GST); made in house; host or cells: SF21 insect cells (baculovirus, pFastBac-GST)
Description: A) Experimental Protocol for the Kinase IGF-1R Test:
The inhibitory activity of the compounds on IGF1R is determined by measuring the inhibition of autophosphorylation of the enzyme using a time-resolved fluorescence test (HTRF). The human cytoplasmic domain of IGF-1R was cloned by fusion with glutathione S-transferase (GST) in the baculovirus expression vector pFastBac-GST. The protein is expressed in the SF21 cells and purified to about 80% homogeneity. For the enzymatic test, the test compound at 10 mM dissolved in DMSO is diluted in 1/3 steps in a 50 mM Hepes, pH 7.5, 5 mM MnCl2, 50 mM NaCl, 3% Glycerol, 0.025% Tween 20 buffer. To measure the inhibition, the successive dilutions of the compound are preincubated for 30 minutes and 90 minutes in the presence of 5 nM of enzyme, the final DMSO concentration not exceeding 1%. The enzymatic reaction is initiated to have a final ATP concentration of 120 μM, and is stopped after 5 minutes by addition of 100 mM Hepes, pH 7.0 buffer containing 0.4 M of potassium fluoride, 133 mM EDTA, 0.1% BSA, the XL665-labelled antibody anti-GST and the anti-phosphotyrosine antibody conjugated to europium cryptate Eu—K (Cis-Bio Int.). The characteristics of the two fluorophores, XL-665 and Eu—K, are available in G. Mathis et al., Anticancer Research, 1997, 17, pages 3011-3014. The energy transfer between the excited europium cryptate to the acceptor XL665 is proportional to the degree of autophosphorylation of IGF-1R. The specific long-lasting signal of XL-665 is measured in a GENios Pro TECAN plate counter. The inhibition of autophosphorylation of IGF-1R at time 30 minutes and 90 minutes with the test compounds of the invention is calculated relative to a 1% in DMSO control, whose activity is measured in the absence of compound. The curve representing the percentage of inhibition as a function of the log of the concentration is established to determine the concentration corresponding to 50% inhibition (IC50).

[3] = preincubation with enzyme 30 minutes, read-out: Test A 30′ IC50
[4] = preincubation with enzyme 90 minutes, read-out: Test A 90′ IC50

T1 sequence (P08069 960-1367 limits assumed): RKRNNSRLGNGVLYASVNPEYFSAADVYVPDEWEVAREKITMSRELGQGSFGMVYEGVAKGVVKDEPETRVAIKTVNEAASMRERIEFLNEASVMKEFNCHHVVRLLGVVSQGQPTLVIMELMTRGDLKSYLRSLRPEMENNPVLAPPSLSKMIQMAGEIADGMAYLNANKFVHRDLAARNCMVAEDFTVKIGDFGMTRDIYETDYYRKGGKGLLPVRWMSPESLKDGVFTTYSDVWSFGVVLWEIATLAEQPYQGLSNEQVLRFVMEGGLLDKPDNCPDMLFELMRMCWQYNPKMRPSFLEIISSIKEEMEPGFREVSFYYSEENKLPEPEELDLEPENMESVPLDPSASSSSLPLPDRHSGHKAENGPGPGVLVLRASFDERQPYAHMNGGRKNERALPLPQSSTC
Sequence of MEF-IGF1R cells (stable clone transfected with hIGF-1R) (P08069 whole entry, change not shown): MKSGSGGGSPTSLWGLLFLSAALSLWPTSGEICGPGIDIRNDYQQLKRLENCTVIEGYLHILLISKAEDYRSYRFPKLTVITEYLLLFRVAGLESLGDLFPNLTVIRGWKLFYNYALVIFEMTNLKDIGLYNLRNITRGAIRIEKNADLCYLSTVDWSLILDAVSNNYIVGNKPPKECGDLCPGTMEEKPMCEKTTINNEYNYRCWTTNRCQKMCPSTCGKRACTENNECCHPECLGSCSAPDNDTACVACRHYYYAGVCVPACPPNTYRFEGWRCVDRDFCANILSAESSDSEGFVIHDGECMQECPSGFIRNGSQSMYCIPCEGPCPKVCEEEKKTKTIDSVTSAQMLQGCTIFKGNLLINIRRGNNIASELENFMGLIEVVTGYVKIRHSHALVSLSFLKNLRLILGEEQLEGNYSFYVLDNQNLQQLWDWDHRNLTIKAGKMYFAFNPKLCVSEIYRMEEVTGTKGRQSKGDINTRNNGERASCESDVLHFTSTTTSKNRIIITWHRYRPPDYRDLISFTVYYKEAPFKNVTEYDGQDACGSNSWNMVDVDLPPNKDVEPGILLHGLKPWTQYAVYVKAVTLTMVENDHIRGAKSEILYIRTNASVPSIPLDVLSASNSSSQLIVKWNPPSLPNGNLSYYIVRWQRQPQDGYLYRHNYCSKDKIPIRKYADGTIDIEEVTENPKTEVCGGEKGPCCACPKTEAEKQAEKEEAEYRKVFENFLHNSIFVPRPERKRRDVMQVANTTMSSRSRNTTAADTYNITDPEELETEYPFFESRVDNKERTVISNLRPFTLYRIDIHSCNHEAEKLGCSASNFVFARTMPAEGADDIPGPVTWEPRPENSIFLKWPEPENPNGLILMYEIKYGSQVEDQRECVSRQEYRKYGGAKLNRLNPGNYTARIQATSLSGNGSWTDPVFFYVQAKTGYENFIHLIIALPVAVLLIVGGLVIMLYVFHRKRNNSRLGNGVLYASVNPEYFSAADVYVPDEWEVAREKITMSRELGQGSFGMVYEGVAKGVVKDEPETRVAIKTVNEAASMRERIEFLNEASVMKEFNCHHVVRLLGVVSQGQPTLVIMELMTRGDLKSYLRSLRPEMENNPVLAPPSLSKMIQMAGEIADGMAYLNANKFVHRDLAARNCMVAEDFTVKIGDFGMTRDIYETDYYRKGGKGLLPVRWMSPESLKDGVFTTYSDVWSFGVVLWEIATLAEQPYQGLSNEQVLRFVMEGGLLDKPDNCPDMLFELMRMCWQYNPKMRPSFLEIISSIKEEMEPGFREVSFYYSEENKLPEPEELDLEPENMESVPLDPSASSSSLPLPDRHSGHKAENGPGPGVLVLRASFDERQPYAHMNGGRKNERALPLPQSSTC

Compound: CC(C)(C)c1ccc(N2C(=O)N(Cc3ccnc(Nc4cncc(F)c4)c3)C(C)(C)C2=O)cc1 [Example 31A, 3-(4-tert-butylphenyl)-1-({2-[(5-fluoropyridin-3-yl)amino]pyridin-4-yl}methyl)-5,5-dimethylimidazolidine-2,4-dione]
- GI50 [1]: > 100 nM
- IC50 [2, 3]: 10 to 100 nM
- IC50 [2, 4]: 10 to 100 nM

Compound: CN(C)C(=O)Nc1cc(CN2C(=O)N(c3ccc(OC(F)(F)F)c(NC(=O)[C@H](N)c4ccccc4)c3)C(=O)C2(C)C)ccn1 [Example 6a, (2R)-2-amino-N-{5-[3-({2-[(dimethylcarbamoyl)amino]pyridin-4-yl}methyl)-4,4-dimethyl-2,5-dioxoimidazolidin-1-yl]-2-(trifluoromethoxy)phenyl}-2-phenylacetamide]
- GI50 [1]: < 10 nM
- IC50 [2, 3]: > 100 nM
- IC50 [2, 4]: 10 to 100 nM

Compound: CC(C)(C)c1ccc(N2C(=O)N(Cc3ccnc(NC(=O)N4CCOCC4)c3)C(C)(C)C2=O)cc1 [Example 20, N-(4-{[3-(4-tert-butylphenyl)-5,5-dimethyl-2,4-dioxoimidazolidin-1-yl]methyl}pyridin-2-yl)morpholine-4-carboxamide]
- GI50 [1]: > 100 nM
- IC50 [2, 3]: 10 to 100 nM
- IC50 [2, 4]: < 10 nM

Compound: CC(C)(C)c1ccc(N2C(=O)N(Cc3ccnc(N)n3)C(C)(C)C2=O)cc1 [Example 1 Stage f), 1-[(2-aminopyrimidin-4-yl)methyl]-3-(4-tert-butylphenyl)-5,5-dimethylimidazolidine-2,4-dione]
- GI50 [1]: > 100 nM
- IC50 [2, 3]: 10 to 100 nM
- IC50 [2, 4]: 10 to 100 nM

Compound: CC(C)(C)c1ccc(N2C(=O)N(Cc3ccnc(Nc4cncnc4)c3)C(C)(C)C2=O)cc1 [Example 7, 3-(4-tert-butylphenyl)-5,5-dimethyl-1-{[2-(pyrimidin-5-ylamino)pyridin-4-yl]methyl}imidazolidine-2,4-dione]
- GI50 [1]: > 100 nM
- IC50 [2, 3]: 10 to 100 nM
- IC50 [2, 4]: 10 to 100 nM

Compound: CC(C)(C)c1ccc(N2C(=O)N(Cc3ccnc(NC(=O)NCCN4CCCC4)c3)C(C)(C)C2=O)cc1 [Example 11, 1-(4-{[3-(4-tert-butylphenyl)-5,5-dimethyl-2,4-dioxoimidazolidin-1-yl]methyl}pyridin-2-yl)-3-(2-pyrrolidin-1-ylethyl)urea]
- GI50 [1]: > 100 nM
- IC50 [2, 3]: 10 to 100 nM
- IC50 [2, 4]: 10 to 100 nM

Compound: CC(C)(C)c1ccc(N2C(=O)N(Cc3ccnc(NC(=O)NC4CCCCC4)c3)C(C)(C)C2=O)cc1 [Example 16, 1-(4-{[3-(4-tert-butylphenyl)-5,5-dimethyl-2,4-dioxoimidazolidin-1-yl]methyl}pyridin-2-yl)-3-cyclohexylurea]
- GI50 [1]: > 100 nM
- IC50 [2, 3]: > 100 nM
- IC50 [2, 4]: 10 to 100 nM

Compound: CC1(C)CN(C(=O)CNC2CCCC2)c2cc(N3C(=O)N(Cc4ccnc(Nc5cccnc5)c4)C(C)(C)C3=O)ccc21 [Example 4, 3-[1-(N-cyclopentylglycyl)-3,3-dimethyl-2,3-dihydro-1H-indol-6-yl]-5,5-dimethyl-1-{[2-(pyridin-3-ylamino)pyridin-4-yl]methyl}imidazolidine-2,4-dione]
- GI50 [1]: < 10 nM
- IC50 [2, 3]: 10 to 100 nM
- IC50 [2, 4]: 10 to 100 nM

Compound: CN(C)C(=O)Nc1nccc(CN2C(=O)N(c3ccc(C(C)(C)C)cc3)C(=O)C2(C)C)n1 [Example 2, 3-(4-{[3-(4-tert-butylphenyl)-5,5-dimethyl-2,4-dioxoimidazolidin-1-yl]methyl}pyrimidin-2-yl)-1,1-dimethylurea]
- GI50 [1]: > 100 nM
- IC50 [2, 3]: > 100 nM
- IC50 [2, 4]: > 100 nM

Compound: CN(C)C(=O)Nc1cc(CN2C(=O)N(c3ccc4c(c3)N(C(=O)CNC3CCCC3)CC4(C)C)C(=O)C2(C)C)ccn1 [Example 3, 3-[4-({3-[1-(N-cyclopentylglycyl)-3,3-dimethyl-2,3-dihydro-1H-indol-6-yl]-5,5-dimethyl-2,4-dioxoimidazolidin-1-yl}methyl)pyridin-2-yl]-1,1-dimethylurea]
- GI50 [1]: 10 to 100 nM
- IC50 [2, 3]: > 100 nM
- IC50 [2, 4]: 10 to 100 nM
